Experimental data reported in patent publication US8969577B2, “Curable composition comprising a thermolatent base” (BASF SE, priority 2008, dated 2015).

Assay: Curing of powder coating formulation, conversion of epoxy groups by ATR-IR
Conditions: for Conversion 5′ 100° C. / Conversion 5′ 130° C. / Conversion 5′ 150° C. / Conversion 5′ 180° C.: Table 4, amount 1 wt. %; for Conversion 5′ 100° C. / Conversion at 5′ 100° C.: 5 min 100° C.; for Conversion 5′ 130° C. / Conversion at 5′ 130° C.: 5 min 130° C.; for Conversion 5′ 150° C. / Conversion at 5′ 150° C.: 5 min 150° C.; for Conversion 5′ 180° C.: 5 min 180° C.; for Conversion at 15′ 120° C.: 15 min 120° C.
Procedure: A powder coating formulation consisting of an acidic functional polyester and an epoxy functional polymer that cures without a catalyst at 200° C. for 20 minutes is used. The solid coating formulation is dissolved at 50% solids in methyl-iso-butyl ketone for ease of application. The curing catalyst is added in varying amounts from 0.5 up to 1.5% by weight, based on solids. The thermolatent compounds are compared with imidazole or compound 1 as a reference base. The formulation is applied at wet thickness 250 μm using a wire bar. The solvent is evaporated at room temperature during 30 minutes, and the coating formulation is cured for given times and at the specified temperature (cf. Tables 2 to 4). The curing progress is evaluated using attenuated total reflection infrared (IR) spectroscopy. The fading of the epoxy-attributable peak at 899-921 cm^−1 in comparison to the stable reference peak at 814-841 cm^−1 is used for the calculation of the conversion of epoxy groups.

Row | SMILES | Conversion 5′ 100° C. [%] | Conversion 5′ 130° C. [%] | Conversion 5′ 150° C. [%] | Conversion 5′ 180° C. [%] | Conversion at 5′ 100° C. (amount 0.5 wt. %) [%] | Conversion at 5′ 130° C. (amount 0.5 wt. %) [%] | Conversion at 5′ 150° C. (amount 0.5 wt. %) [%] | Conversion at 15′ 120° C. (amount 0.5 wt. %) [%] | Conversion at 5′ 130° C. (amount 1.0 wt. %) [%] | Conversion at 5′ 150° C. (amount 1.0 wt. %) [%] | Conversion at 5′ 130° C. (amount 1.5 wt. %) [%] | Conversion at 5′ 150° C. (amount 1.5 wt. %) [%]
1 | c1c[nH]cn1 [imidazole, reference compound] | 53 | 74 | 100 | 100 | 26 | 35 | 100 | 100 |  |  |  | 
2 | C1=CC2=NCCN2C=C1 [Compound 1, reference compound] |  |  |  |  | 13 |  |  | 98 |  |  |  | 
3 | CC(C)(C)OC(=O)OCCNc1ccccn1 [Compound 3] |  |  |  |  |  |  |  |  | 22 | 94 | 23 | 100
4 | CN(C)CCCNc1ccc2ccccc2n1 [Compound 16] | 0 | 0 | 20 | 100 |  |  |  |  |  |  |  | 
5 | OCCNc1ccccn1 [Compound 2, 2-(pyridine-2-ylamino)ethanol] |  |  |  |  |  | 26 | 97 |  |  |  |  | 
6 | CCNC(=O)OCCNc1ccccn1 [Compound 7] |  |  |  |  |  |  |  |  | 14 | 95 | 29 | 93
